Test [1] deals with ducksalad (Heteranthera limosa). Nature of the test: Test B flooded paddy test, ducksalad. Particulars: 336 h, read-out: Plant response rating, Ducksalad.
The test system of the next test is kochia (Bassia scoparia). Nature of the test: Test A postemergence, kochia. It counts as in vivo. Particulars: Bassia scoparia, post-emergence, 240 h, Postemergence, 0 to 100 scale (0 no effect, 100 complete control); for pest or weed control at 125 g/ha: 125 g ai/ha; for pest or weed control at 500 g/ha: 500 g ai/ha. The procedure, abridged:
(§1)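 After sowing into a sand-amended loam, pots for the preemergence test were treated by spraying directly onto soil. In parallel, seedlings at the one- to two-leaf stage and 2 to 10 cm tall were treated postemergence with the identical surfactant-containing formulation.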

For another test, the system named is rice (Oryza sativa). Nature of the test: Test B flooded paddy test, rice. As to conditions: 336 h, read-out: Plant response rating, Rice.
The subject of test [2] is wheat (Triticum aestivum). Nature of the test: Test A postemergence, wheat. Type of test: in vivo. As to conditions: Triticum aestivum, post-emergence, 240 h, Postemergence, 0 to 100 scale (0 no effect, 100 complete control); for plant injury at 125 g/ha: 125 g ai/ha; for plant injury at 500 g/ha: 500 g ai/ha. In short, it runs like this: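 Pots: loam soil/sand blend. Pre: directed soil spray at planting. Post: plants 2–10 cm, 1–2 leaf stage. Formulation: non-phytotoxic solvent + surfactant.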

The subject of test [3] is blackgrass (Alopecurus myosuroides). Nature of the test: Test A postemergence, blackgrass. Type of test: in vivo. Particulars: Alopecurus myosuroides, post-emergence, 240 h, Postemergence, 0 to 100 scale (0 no effect, 100 complete control); for pest or weed control at 125 g/ha: 125 g ai/ha; for pest or weed control at 500 g/ha: 500 g ai/ha. In short, it runs like this: as §1

Setting [4] is: read-out: Plant response rating, Kochia.
[5] abbreviates: read-out: Plant response rating, Wheat.
[6] abbreviates: read-out: Plant response rating, Blackgrass.

SMILES strings stand for the structures. Read-outs that look alike come from different tables or passages of the source.

For `Cc1cc(Cl)c(NS(=O)(=O)C(F)(F)F)cc1C(=O)N1CCC(F)(F)CC1` [Compound 229, N-[2-Chloro-5-[(4,4-difluoro-1-piperidinyl)carbonyl]-4-methylphenyl]-1,1,1-trifluoromethanesulfonamide], the pest or weed control at 250 g/ha in test [1] came out at 75%. In addition, the pest or weed control at 125 g/ha in the test with kochia (Bassia scoparia) (setting [4]) was 60%; in test [3] (setting [6]), 20%. In addition, the pest or weed control at 500 g/ha was determined as 90% with kochia (Bassia scoparia) (visual injury vs untreated controls after approx. 10 days, read-out: Kochia plant response rating) and 70% in test [3] (visual injury vs untreated controls after approx. 10 days, read-out: Blackgrass plant response rating). Also, in the test with rice (Oryza sativa), the plant injury at 250 g/ha was determined as 10%. Besides, in test [2] (setting [5]), the plant injury at 125 g/ha came out at 60%. Moreover, the plant injury at 500 g/ha in test [2] (visual injury vs untreated controls after approx. 10 days, read-out: Wheat plant response rating) turned out to be 70%.

On to `Cc1cc(C)c(C(=O)N2CCC(F)(F)CC2)cc1NS(=O)(=O)C(F)(F)F` [Compound 241, N-[5-[(4,4-Difluoro-1-piperidinyl)carbonyl]-2,4-dimethylphenyl]-1,1,1-trifluoromethanesulfonamide], for which, in test [1], the pest or weed control at 250 g/ha amounted to 85%. Also, the pest or weed control at 125 g/ha is 60% in the test with kochia (Bassia scoparia) (setting [4]) and 0% in test [3] (setting [6]). The pest or weed control at 500 g/ha with kochia (Bassia scoparia) (visual injury approx. 10 days, read-out: Plant response rating, Kochia) worked out at 90%; in test [3] (visual injury approx. 10 days, read-out: Plant response rating, Blackgrass), 80%. Moreover, the plant injury at 250 g/ha in the test on rice (Oryza sativa) amounted to 25%. The plant injury at 125 g/ha in test [2] (setting [5]) is 30%. Besides, in test [2] (visual injury approx. 10 days, read-out: Plant response rating, Wheat), the plant injury at 500 g/ha is 70%.
